Assay results published in ChEMBL document CHEMBL1201862, “PubChem BioAssay data set” (2004).
The source made the active and inactive calls.

Legend:
[1] = insulin promoter down-regulators in MIN6 cells, imaging, high-content screening, mouse beta cells (AID 1628); type: functional
[2] = cytotoxicity in MIN6 insulinoma cells, dose response, cytotoxicity control, cell-based, mouse insulinoma (AID 2122); type: functional;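 also: confirmatory high-throughput counterscreen run to flag cytotoxic compounds; mouse MIN-6 beta cells carrying an insulin promoter eGFP reporter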
[3] = target: T1, High affinity choline transporter 1 (Homo sapiens, UniProt Q9GZV3); assay: CHT inhibitors, dose response, cell-based, 5-point CRC, membrane potential dye (AID 504840); type: functional
T1 sequence (Q9GZV3 whole entry): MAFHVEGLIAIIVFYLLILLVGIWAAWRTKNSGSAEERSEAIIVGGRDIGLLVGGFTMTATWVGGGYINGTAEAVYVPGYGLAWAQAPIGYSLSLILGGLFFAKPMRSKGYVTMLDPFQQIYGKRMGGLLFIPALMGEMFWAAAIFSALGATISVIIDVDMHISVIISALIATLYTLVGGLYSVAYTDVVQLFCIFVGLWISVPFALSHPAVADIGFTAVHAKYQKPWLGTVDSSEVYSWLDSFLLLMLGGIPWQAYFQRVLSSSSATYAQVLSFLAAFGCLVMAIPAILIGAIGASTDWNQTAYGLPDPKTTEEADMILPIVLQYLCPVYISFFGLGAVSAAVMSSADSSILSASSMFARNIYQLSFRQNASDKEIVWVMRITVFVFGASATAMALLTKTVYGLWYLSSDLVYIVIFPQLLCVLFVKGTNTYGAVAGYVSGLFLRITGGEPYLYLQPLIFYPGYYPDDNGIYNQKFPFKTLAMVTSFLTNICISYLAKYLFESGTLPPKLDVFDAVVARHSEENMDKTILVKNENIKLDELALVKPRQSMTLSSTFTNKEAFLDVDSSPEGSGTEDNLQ

[4] = target: Ras and Rab interactor 1/Tyrosine-protein kinase ABL1 (Homo sapiens, UniProt P00519+Q13671); type: functional;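 also: biochemical TR-FRET dose-response test measuring inhibition of binding between Rin1 and Abl proteins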
[5] = target: T1, High affinity choline transporter 1; assay: CHT inhibitors, dose response, cell-based, 10-point CRC, membrane potential dye (AID 588401); type: functional;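 also: membrane potential dye fluorescence of choline-evoked depolarization via CHT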
[6] = CAL PDZ domain peptide-binding inhibitors, dose response, biochemical, fluorescence polarization, untagged CAL PDZ, cherry-pick, set 2 (AID 602254); type: functional
[7] = ARNT/TACC3 interaction disruptors, potency, confirmation, biochemical, AlphaScreen, cherry-picked samples (AID 651703); type: functional, Homo sapiens;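 also: His-tagged ARNT PAS-B domain paired with GST-TACC3 E629A dimer coactivator fragment; potency of inhibitors that break up the complex and lower AlphaScreen signal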
[8] = target: T2, Corticotropin-releasing factor receptor 2/Corticotropin-releasing factor-binding protein (Homo sapiens, UniProt P24387+Q13324); assay: Dose Response confirmation of uHTS hits for small molecule antagonists of the CRF-binding protein and CRF-R2 receptor complex.; type: functional; details: read-out: IC50_Mean
T2 sequence (Q13324 whole entry): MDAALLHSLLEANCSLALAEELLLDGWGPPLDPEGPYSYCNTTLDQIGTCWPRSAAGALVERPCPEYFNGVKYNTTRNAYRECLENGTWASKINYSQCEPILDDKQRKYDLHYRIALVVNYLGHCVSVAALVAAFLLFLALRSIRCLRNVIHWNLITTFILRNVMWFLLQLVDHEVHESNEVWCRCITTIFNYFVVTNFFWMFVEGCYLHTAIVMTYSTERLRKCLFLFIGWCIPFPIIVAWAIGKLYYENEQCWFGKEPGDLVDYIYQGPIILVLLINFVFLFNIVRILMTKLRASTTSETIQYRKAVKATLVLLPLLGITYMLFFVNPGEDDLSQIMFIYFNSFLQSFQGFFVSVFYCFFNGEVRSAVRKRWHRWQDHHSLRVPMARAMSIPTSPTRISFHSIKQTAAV
T2 sequence (P24387 whole entry): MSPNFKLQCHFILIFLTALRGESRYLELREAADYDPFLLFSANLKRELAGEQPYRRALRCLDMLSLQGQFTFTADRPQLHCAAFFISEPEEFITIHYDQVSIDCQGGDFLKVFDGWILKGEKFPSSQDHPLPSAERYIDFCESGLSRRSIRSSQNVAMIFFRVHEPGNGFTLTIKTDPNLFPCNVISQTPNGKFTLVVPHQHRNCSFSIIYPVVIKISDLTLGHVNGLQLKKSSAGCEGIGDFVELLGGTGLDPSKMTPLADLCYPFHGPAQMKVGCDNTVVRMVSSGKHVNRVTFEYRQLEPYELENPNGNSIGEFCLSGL

[9] = target: T2, Corticotropin-releasing factor receptor 2/Corticotropin-releasing factor-binding protein; assay: activators of CRF receptor 2 with binding protein – uHTS hits, confirmation (AID 602473); type: functional; details: read-out: EC50_Mean
[10] = CRF-BP/CRF-R2 complex antagonists, dose response, cell-based, uHTS hits, 384-well (AID 651639); type: functional, Homo sapiens; details: read-out: IC50_Mean
[11] = target: T3, ATP-dependent translocase ABCB1 (Homo sapiens, UniProt P08183); assay: ABCG2 efflux pump inhibitor potency, dose response, Ig-MXP3 cells, JC-1, flow cytometry, set 2 (AID 504566); type: functional; details: read-out: EC50_MICROM_;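 also: flow cytometry median green fluorescence of retained JC-1 dye; potency of efflux pump inhibition measured as rising substrate retention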
[12] = target: T3, ATP-dependent translocase ABCB1; assay: ABCB1 efflux inhibitor potency, dose response, Jurkat-DNR cells, JC-1, flow cytometry, set 2 (AID 504569); type: functional; details: read-out: EC50_MICROM_;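 also: potency of pump inhibitors that raise cellular JC-1 green fluorescence up to the nicardipine level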
[13] = target: T4, Carboxy-terminal domain RNA polymerase II polypeptide A small phosphatase 1 (Homo sapiens, UniProt Q9GZU7); assay: inhibitors of CTDSP1, concentration-response testing, biochemical assay, absorbance-based, actives from ultra-high-throughput screening (AID 540297); type: functional
T4 sequence (Q9GZU7 whole entry): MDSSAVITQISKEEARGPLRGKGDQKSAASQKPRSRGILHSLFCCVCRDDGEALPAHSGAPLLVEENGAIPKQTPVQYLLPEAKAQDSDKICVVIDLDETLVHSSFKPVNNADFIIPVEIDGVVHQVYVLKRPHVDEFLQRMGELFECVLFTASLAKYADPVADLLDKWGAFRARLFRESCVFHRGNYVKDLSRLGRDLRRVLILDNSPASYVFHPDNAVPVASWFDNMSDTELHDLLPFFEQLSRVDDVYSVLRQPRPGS

[14] = target: Tyrosine-protein phosphatase non-receptor type 11 (Homo sapiens, UniProt Q06124); assay: SHP2 phosphatase inhibition, dose response, selectivity assay for STEP inhibitor project, biochemical (AID 602367); type: functional; details: read-out: IC50_Mean
[15] = target: Tyrosine-protein phosphatase non-receptor type 5 (Homo sapiens, UniProt P54829); assay: STEP phosphatase inhibitors, confirmation, biochemical, fluorescence intensity, uHTS hits (AID 602372); type: functional; details: read-out: IC50_Mean
[16] = target: Dual specificity protein phosphatase 3 (Homo sapiens, UniProt P51452); assay: VHR phosphatase inhibition, dose response, selectivity assay for STEP inhibitor project, biochemical (AID 602374); type: functional; details: read-out: IC50_Mean
[17] = target: T5, Low molecular weight phosphotyrosine protein phosphatase (Homo sapiens, UniProt P24666); type: functional; details: read-out: IC50_Mean
T5 sequence (P24666 whole entry): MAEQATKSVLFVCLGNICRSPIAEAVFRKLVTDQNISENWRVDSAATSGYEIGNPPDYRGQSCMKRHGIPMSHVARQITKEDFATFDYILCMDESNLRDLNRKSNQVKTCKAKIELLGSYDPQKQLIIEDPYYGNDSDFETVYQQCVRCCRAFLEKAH

[18] = target: T5, Low molecular weight phosphotyrosine protein phosphatase; type: functional; details: read-out: IC50_Mean; remark: listed apart in the source
[19] = target: T6, Tyrosine-protein phosphatase non-receptor type 22 (Homo sapiens, UniProt Q9Y2R2); assay: LYP phosphatase inhibition for selectivity, dose response, selectivity assay for LMPTP inhibitor project, biochemical, fluorescence, LYP catalytic domain (AID 652006); type: functional; details: read-out: IC50_Mean
T6 sequence (Q9Y2R2 whole entry): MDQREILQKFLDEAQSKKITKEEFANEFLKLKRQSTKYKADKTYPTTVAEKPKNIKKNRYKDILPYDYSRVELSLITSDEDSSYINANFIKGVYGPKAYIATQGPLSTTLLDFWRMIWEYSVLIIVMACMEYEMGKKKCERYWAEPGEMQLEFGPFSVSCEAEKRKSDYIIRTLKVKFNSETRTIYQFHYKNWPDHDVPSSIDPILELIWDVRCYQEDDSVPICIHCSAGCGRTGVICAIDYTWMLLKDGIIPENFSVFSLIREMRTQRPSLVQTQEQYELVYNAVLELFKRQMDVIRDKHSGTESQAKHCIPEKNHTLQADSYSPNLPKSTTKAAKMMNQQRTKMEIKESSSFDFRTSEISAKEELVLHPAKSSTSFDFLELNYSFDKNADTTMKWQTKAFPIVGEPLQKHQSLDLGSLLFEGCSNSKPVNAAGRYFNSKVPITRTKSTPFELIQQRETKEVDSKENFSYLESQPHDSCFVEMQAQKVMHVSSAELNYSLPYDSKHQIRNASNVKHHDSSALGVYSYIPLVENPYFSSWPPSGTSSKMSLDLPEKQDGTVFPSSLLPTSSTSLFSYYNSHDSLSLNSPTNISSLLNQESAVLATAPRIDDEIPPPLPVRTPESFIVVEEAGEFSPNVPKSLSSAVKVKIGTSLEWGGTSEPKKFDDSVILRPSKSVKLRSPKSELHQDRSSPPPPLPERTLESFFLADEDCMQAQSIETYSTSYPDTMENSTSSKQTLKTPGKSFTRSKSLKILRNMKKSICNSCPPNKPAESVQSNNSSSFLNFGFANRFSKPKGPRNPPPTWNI

[20] = target: Adenosylmethionine-8-amino-7-oxononanoate aminotransferase (Mycobacterium tuberculosis, UniProt P9WQ81); assay: Mycobacterium tuberculosis BioA enzyme inhibitor Measured in Biochemical System Using Plate Reader - 2163-02_Inhibitor_Dose_CherryPick_Activity.; type: functional, Mycobacterium tuberculosis UT205
[21] = target: Nuclear receptor subfamily 5 group A member 2 (Homo sapiens, UniProt O00482); type: functional, cell-based;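 also: HEK293T cells transfected with LRH-1 and a StAR promoter luciferase reporter; potency for inhibitors that lower LRH-1 driven reporter light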
Steroidogenic factor 1 = Steroidogenic factor 1 (Homo sapiens, UniProt Q13285); assay: Counterscreen for inverse agonists of the liver receptor homolog-1 (LRH-1; NR5A2): Luminescence-based cell-based high throughput dose response assay to identify inverse agonists of the Steroidogenic Factor 1 Nuclear Receptor (SF1; NR5A1).; type: functional
[22] = StAR promoter reporter inhibition counter-screen, dose response, counter-screen for LRH-1 inverse agonist project, cell-based, luminescence, luciferase reporter (AID 651969); type: functional
[23] = target: T7, Sentrin-specific protease 8 (Homo sapiens, UniProt Q96LD8); type: functional
T7 sequence (Q96LD8 whole entry): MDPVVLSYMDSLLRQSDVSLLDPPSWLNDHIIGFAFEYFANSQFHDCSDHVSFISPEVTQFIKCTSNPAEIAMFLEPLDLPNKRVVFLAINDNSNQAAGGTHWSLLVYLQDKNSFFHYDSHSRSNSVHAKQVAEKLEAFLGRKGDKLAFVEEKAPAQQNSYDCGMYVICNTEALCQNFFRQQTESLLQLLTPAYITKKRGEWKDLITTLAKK

[24] = target: T7, Sentrin-specific protease 8; type: functional; remark: listed apart in the source
[25] = AlphaScreen signal interference compounds, dose response, artefact control for ARNT-TACC3 interaction inhibitor project, biochemical, luminescence, cherry-pick (AID 651705); type: functional;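 also: AlphaScreen bead proximity signal that flags compounds interfering with the detection technology; potency reflects signal decrease which marks the compound as an assay artifact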
[26] = target: Hepatocyte nuclear factor 4-alpha (Homo sapiens, UniProt P41235); type: functional, cell-based;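 also: biochemical luminescence-based dose-response counterscreen measuring inhibition of HNF4 dimerization, run alongside a screen for blockers of ABHD5–perilipin-5 interaction; split luciferase complementation of HNF4 fusion proteins in cell lysate measuring dimerization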
Chain of Hepatocyte nuclear factor 4-alpha (P41235 whole entry, the tested form may be a part): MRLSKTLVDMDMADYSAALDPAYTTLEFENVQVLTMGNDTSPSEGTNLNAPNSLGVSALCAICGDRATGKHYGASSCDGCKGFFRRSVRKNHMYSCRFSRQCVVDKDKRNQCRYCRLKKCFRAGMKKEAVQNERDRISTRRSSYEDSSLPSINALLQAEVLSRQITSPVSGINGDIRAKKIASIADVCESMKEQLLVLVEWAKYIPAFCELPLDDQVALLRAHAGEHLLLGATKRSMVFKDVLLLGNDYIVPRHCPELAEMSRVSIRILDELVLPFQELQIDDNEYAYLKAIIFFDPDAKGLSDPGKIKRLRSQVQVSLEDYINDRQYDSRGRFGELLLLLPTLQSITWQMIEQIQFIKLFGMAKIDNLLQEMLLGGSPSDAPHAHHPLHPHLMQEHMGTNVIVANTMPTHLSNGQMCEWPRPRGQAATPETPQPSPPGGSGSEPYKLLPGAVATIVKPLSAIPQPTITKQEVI

T3 sequence (P08183 whole entry): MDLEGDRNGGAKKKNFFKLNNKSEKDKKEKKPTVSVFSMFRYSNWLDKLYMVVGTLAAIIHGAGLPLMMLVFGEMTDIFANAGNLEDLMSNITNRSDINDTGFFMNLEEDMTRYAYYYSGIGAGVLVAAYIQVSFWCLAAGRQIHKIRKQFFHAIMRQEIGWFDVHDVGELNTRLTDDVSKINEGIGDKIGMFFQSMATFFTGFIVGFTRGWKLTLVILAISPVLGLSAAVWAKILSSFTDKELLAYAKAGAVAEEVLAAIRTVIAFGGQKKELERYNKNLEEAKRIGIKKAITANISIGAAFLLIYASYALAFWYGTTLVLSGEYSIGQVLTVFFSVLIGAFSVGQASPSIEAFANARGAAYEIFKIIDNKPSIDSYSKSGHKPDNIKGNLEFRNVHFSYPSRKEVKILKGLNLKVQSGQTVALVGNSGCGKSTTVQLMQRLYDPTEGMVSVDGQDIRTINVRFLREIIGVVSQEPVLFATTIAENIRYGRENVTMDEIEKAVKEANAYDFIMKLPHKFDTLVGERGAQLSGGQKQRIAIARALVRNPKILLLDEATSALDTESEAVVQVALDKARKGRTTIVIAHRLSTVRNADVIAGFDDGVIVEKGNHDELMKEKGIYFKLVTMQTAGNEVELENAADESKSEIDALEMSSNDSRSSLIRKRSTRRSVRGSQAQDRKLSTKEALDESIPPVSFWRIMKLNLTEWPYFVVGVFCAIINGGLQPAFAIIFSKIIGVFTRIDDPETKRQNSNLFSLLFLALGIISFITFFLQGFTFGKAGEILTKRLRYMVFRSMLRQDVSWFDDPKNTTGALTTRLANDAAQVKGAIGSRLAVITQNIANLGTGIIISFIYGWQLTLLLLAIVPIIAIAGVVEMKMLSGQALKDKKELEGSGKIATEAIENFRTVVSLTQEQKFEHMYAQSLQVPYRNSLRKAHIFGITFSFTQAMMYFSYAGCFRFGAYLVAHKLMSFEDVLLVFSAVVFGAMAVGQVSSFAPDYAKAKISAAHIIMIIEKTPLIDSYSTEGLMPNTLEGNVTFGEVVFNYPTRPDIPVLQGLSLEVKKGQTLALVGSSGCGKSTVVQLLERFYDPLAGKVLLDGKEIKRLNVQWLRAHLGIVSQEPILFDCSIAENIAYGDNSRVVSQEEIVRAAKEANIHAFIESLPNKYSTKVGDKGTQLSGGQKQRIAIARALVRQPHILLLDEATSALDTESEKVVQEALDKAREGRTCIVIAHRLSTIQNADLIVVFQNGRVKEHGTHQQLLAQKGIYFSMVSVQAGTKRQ
Chain of Ras and Rab interactor 1/Tyrosine-protein kinase ABL1 (P00519 whole entry): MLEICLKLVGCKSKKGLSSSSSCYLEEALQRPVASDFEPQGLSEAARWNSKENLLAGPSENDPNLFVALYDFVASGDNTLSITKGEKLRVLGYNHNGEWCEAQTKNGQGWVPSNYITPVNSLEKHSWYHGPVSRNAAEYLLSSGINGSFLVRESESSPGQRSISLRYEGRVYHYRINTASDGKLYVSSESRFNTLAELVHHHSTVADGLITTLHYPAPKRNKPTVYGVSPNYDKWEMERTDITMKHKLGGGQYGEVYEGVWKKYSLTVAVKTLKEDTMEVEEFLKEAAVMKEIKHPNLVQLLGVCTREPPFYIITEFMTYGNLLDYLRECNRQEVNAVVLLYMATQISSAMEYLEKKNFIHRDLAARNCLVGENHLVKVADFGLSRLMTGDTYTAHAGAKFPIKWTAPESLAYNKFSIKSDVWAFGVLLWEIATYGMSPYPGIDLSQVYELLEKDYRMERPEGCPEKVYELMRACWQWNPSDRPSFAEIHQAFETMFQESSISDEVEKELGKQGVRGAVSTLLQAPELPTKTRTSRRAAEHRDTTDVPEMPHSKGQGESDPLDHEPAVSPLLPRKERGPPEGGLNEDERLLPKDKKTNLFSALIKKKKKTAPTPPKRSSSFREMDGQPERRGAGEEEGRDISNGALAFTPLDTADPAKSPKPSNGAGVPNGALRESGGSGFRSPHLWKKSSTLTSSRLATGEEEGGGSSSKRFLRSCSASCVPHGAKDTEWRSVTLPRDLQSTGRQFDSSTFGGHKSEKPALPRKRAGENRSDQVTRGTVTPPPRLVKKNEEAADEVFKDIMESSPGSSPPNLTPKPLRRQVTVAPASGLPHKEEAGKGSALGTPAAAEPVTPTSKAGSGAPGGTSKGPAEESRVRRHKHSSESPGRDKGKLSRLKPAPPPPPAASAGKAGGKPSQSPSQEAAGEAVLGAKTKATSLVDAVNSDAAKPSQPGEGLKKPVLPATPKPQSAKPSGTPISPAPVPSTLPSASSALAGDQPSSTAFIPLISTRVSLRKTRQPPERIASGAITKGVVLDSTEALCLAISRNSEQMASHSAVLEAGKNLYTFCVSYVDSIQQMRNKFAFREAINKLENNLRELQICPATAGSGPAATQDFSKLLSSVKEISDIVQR
Chain of Ras and Rab interactor 1/Tyrosine-protein kinase ABL1 (Q13671 whole entry): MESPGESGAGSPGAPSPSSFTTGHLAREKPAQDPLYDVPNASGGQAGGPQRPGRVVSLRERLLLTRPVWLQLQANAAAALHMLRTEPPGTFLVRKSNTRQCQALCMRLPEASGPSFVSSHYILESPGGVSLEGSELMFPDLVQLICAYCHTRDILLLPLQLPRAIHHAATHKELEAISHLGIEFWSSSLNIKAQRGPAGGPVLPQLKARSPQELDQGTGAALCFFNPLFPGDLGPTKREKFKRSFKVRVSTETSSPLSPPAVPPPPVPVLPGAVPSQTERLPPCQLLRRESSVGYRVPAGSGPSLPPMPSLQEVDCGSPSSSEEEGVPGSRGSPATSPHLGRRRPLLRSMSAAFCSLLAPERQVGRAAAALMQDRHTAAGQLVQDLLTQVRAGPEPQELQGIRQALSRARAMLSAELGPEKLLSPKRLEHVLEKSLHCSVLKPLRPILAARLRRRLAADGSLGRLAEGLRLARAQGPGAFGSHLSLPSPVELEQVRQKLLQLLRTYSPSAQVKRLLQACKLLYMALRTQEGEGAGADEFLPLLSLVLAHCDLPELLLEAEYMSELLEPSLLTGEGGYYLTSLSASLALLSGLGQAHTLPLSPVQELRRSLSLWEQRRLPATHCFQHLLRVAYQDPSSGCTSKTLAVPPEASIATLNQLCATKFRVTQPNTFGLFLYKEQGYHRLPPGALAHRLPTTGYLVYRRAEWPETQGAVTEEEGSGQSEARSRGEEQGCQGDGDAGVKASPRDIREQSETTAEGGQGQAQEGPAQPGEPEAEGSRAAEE
Chain of Steroidogenic factor 1 (Q13285 whole entry): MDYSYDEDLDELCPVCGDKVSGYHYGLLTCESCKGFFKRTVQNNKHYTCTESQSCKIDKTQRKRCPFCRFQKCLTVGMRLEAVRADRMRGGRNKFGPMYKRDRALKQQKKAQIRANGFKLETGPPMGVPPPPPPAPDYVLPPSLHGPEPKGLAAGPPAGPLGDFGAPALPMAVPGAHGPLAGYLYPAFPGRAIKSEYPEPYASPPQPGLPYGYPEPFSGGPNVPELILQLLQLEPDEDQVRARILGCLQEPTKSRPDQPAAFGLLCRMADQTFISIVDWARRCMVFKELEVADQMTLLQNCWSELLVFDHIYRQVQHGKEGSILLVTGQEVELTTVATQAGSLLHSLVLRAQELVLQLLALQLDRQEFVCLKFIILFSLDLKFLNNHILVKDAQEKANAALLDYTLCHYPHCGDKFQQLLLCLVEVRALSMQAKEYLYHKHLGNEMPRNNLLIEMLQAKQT
Chain of Adenosylmethionine-8-amino-7-oxononanoate aminotransferase (P9WQ81 whole entry): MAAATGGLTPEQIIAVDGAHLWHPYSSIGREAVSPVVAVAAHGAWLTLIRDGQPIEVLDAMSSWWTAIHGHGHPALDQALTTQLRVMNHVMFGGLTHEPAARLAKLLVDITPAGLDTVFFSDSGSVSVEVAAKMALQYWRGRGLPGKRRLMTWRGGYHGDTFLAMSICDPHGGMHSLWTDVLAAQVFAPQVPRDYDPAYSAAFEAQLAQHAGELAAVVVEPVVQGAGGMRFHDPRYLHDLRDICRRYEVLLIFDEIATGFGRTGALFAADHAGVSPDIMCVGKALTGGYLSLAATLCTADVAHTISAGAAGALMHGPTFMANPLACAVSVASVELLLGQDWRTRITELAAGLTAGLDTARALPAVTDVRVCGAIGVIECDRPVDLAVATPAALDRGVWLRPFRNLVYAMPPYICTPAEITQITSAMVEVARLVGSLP
Chain of Dual specificity protein phosphatase 3 (P51452 whole entry): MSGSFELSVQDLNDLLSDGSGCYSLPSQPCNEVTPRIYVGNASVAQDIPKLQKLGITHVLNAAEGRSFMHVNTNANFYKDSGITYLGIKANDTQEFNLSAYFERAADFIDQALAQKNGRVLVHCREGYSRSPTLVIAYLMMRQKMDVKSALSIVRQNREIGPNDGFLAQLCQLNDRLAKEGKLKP

## CCOC(=O)N1CCN(C(=O)C2CCN(c3ncnc4c3sc3cccc(F)c34)CC2)CC1
[1]
  IC50: 1.49 µM (active)
[2]
  IC50: 1.05 µM (active)
[3]
  IC50: 13.8 µM (active)
[4]
  IC50: 14.2 µM (inactive)

## CCn1c(SCCC(C)C)nnc1-c1c[nH]c2ccccc12
[3]
  IC50: 0.955 µM (active)
[5]
  IC50: 2.41 µM (active)

## COc1cc(NC(=O)C2CCCN(S(=O)(=O)c3cccc4nsnc34)C2)cc(OC)c1 (stereo not drawn)
[6]
  AC50: 118 µM (active)

## C/C=C/c1ccc([C@H]2[C@@H](CO)N(Cc3ccccn3)[C@@H]2CNC(C)=O)cc1
[7]
  AC50: 93.3 µM (active)

## O=C(Cc1ccccc1)NCC(=O)OC(c1ccccc1)c1ccccc1
[8]
  IC50: 18.9 µM (active)
[9]
  EC50: > 53 µM (inactive)
[10]
  IC50: > 20 µM (inactive)

## O=C(c1ccccc1)N1CCN(c2cc(Cl)nc3cc(-c4cccc(Cl)c4)nn23)CC1
[11]
  EC50: 1.8 µM (active)
[12]
  EC50: 3.98 µM (active)

## O=C(N/N=C/c1ccc(OC(=O)c2cccs2)cc1)c1cccc(F)c1
[13]
  IC50: 3.55 µM (active)
[14]
  IC50: 1.37 µM (active)
[15]
  IC50: 9.39 µM (active)
[16]
  IC50: 2.45 µM (active)
[17]
  IC50: 17.2 µM (active)
[18]
  IC50: 11.2 µM (active)
[19]
  IC50: 24.9 µM (inactive)

## CC(=O)c1ccc(C(=O)NC2CCCN(Cc3ccccc3F)C2)s1 (stereo not drawn)
[20]
  AC50: 4.26 µM (active)

## Cc1ccc(NC(=O)COC(=O)c2cc(=O)c3ccccc3o2)c(Br)c1
[21]
  IC50: 3.98 µM (active)
Steroidogenic factor 1
  IC50: 24.3 µM (inactive)
[22]
  IC50: 35.9 µM (inactive)

## CN1CC[C@@]2(C)c3cc(O)ccc3N(C)[C@@H]12
[23]
  IC50: 8.51 µM (active)
[24]
  IC50: 3.53 µM (active)
[25]
  AC50: 97.2 µM (active)

## CC(C)(C)NC(=O)C(c1ccc(C(F)(F)F)cc1)n1c(=O)c(-c2ccco2)nc2ccccc21 (stereo not drawn)
[26]
  IC50: 1.81 µM (active)
